From patent US5786358A, “Pyridopyrimidines as nonclassical antifolates” (The Trustees of Princeton University, priority 1996, dated 1998)
Values after ≈ are worked out from the molar mass of the structure shown. Counter-ions that a name gives are not always drawn.

Experiments:
[1] = system: CCRF-CEM cell line; assay: CCRF-CEM cell growth inhibition; assay type: cell-based; conditions: Homo sapiens, read-out: IC50, concentration inhibiting cell growth of a CCRF-CEM cell line by 50% as compared to control
Description: For N-(N-{5-[2-(2-amino-4-hydroxy-5,6,7,8-tetrahydropyrido[2,3-d]pyrimidin-6-yl)-ethyl]thien-2-ylcarbonyl}-L-γ-glutamyl)-D-aspartic acid, the IC50 is 0.100 μg/mL. For N-(N-{5-[2-(2-amino-4-hydroxy-5,6,7,8-tetrahydropyrido[2,3-d]pyrimidin-6-yl)ethyl]thien-2-ylcarbonyl}-L-γ-glutamyl)-D-glutamic acid 1-tert.-butyl-2,2-diethyl ester, the IC50 is 1.0 μg/mL. For N-{5-[2-(2-amino-4-hydroxy-5,6,7,8-tetrahydropyrido[2,3-d]pyrimidin-6-yl)- ethyl]thien-2-ylcarbonyl}-L-homocysteic acid α-methyl ester, the IC50 is 0.200 μg/mL. […] For 2-{5-[2-(2-amino-4-hydroxy-5,6,7,8-tetrahydropyrido[2,3-d]pyrimidin-6-yl)ethyl]thien-2-ylcarbonylamino}-3-(2H-tetrazol-5-yl)propanoic acid diammonium salt the IC50 is >100 μg/mL.

[2] = system: 6C3HED lymphosarcoma tumor; assay: 6C3HED lymphosarcoma tumor growth inhibition in C3H female mice; assay type: in vivo; conditions: daily IV bolus injection for 8 days
Description: N-(N-{5-[2-(2-amino-4-hydroxy-5,6,7,8-tetrahydropyrido[2,3 -d]pyrimidin-6-yl)ethyl]thien-2-ylcarbonyl}-L-γ-glutamyl)-D-asparticacid was evaluated against 6C3HED lymphosarcoma tumor in C3H female mice with the compound given daily, IV bolus injection, for 8 days. Compounds were administered in units of mg/kg of body weight. At the end of treatment, tumor weight was estimated using an electronic caliper interfaced to a microcomputer, and average tumor weight was calculated for each dosing level and a control group. Percentage inhibition of tumor growth was calculated as % inhibition of tumor growth according to the expression:
[1-(average tumor weight experimental group/average tumor weight control
Percentage inhibition was not calculated at a particular dosing level if mortality exceeded 20%. Cumulative dose was calculated by multiplying the daily dose by the number of days doses were administered.

[3] = molecular target: T1, human monofunctional GARFT (Homo sapiens, UniProt P22102); assay: Ki against human monofunctional GARFT; assay type: biochemical; conditions: tight-binding analysis per Henderson; read-out: Ki inhibition constant against human monofunctional GARFT
T1 construct: human monofunctional GARFT
T1 sequence (P22102 810-1010 limits assumed): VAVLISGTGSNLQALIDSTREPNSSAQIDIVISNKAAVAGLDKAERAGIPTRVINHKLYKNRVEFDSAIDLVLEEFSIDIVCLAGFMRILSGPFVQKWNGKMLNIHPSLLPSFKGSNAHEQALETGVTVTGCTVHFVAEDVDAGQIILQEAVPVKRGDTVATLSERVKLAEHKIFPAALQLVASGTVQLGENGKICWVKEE

Row | IC50 [1] [µg/mL] | Ki [3] [nM] | Compound | % inhibition of tumor growth ([2]; 100 mg/kg) [%] | % inhibition of tumor growth ([2]; 200 mg/kg) [%]
1 | 0.1 (≈ 0.177 µM) | 0.244 | Nc1nc(O)c2c(n1)NCC(CCc1ccc(C(=O)N[C@@H](CCC(=O)N[C@H](CC(=O)O)C(=O)O)C(=O)O)s1)C2 (stereo partly shown) [Example 2] | 100 | 100
2 | 0.2 (≈ 0.4 µM) | 3.5 | COC(=O)[C@H](CCS(=O)(=O)O)NC(=O)c1ccc(CCC2CNc3nc(N)nc(O)c3C2)s1 (stereo partly shown) [Example 8] | – | –
3 | 1 (≈ 1.45 µM) | 7.7 | CCOC(=O)CC[C@@H](NC(=O)CC[C@H](NC(=O)c1ccc(CCC2CNc3nc(N)nc(O)c3C2)s1)C(=O)OC(C)(C)C)C(=O)OCC (stereo partly drawn) [N-(N-{5-[2-(2-amino-4-hydroxy-5,6,7,8-tetrahydropyrido[2,3-d]pyrimidin-6-yl)ethyl]thien-2-ylcarbonyl}-L-γ-glutamyl)-D-glutamic acid 1-tert.-butyl-2,2-diethyl ester] | – | –

The next lines start with the compound.

Row | Compound | IC50 [1] [µg/mL] | Ki [3] [nM] | % inhibition of tumor growth ([2]; 100 mg/kg) [%] | % inhibition of tumor growth ([2]; 200 mg/kg) [%]
4 | Nc1nc(O)c2c(n1)NCC(CCc1ccc(C(=O)N[C@@H](CCC(=O)N[C@H](CC(=O)O)C(=O)O)C(=O)O)cc1)C2 (stereo partly drawn) [Example 1, N-(N-{4-[2-(2-Amino-4-hydroxy-5,6,7,8-tetrahydropyrido[2,3-d]pyrimidin-6-yl)ethyl]benzoyl}-L-γ-glutamyl)-D-aspartic Acid] | 1.6 (≈ 2.86 µM) | – | – | –
5 | Nc1nc(O)c2c(n1)NCC(CCc1ccc(C(=O)N[C@@H](CCS(=O)(=O)O)C(=O)O)s1)C2 (stereo partly drawn) [Example 9, N-{5-[2-(2-Amino-4-hydroxy-5,6,7,8-tetrahydropyrido[2.3-d]pyrimidin-6-yl)-ethyl]thien-2-ylcarbonyl}-L-homocysteic Acid] | 0.82 (≈ 1.69 µM) | – | – | –
6 | Nc1nc(O)c2c(n1)NCC(CCc1ccc(C(=O)N[C@@H](Cc3nn[nH]n3)C(=O)O)cc1)C2 (stereo partly shown) [Example 12, 2-{4-[2-(2-Amino-4-hydroxy-5,6,7,8-tetrahydropyrido[2.3-d]pyrimidin-6-yl)ethyl]benzoylamino}-3-(2H-tetrazol-5-yl)propanoic Acid Diammonium Salt] | 28.6 | – | – | –
7 | Nc1nc(O)c2c(n1)NCC(CCc1ccc(C(=O)NC(Cc3nn[nH]n3)C(=O)O)s1)C2 (stereo not shown) [Example 13] | > 100 | 156 | – | –
